Among the data in patent publication US20250163047A1, “HETEROCYCLIC COMPOUNDS, COMPOSITIONS THEREOF, AND METHODS OF TREATMENT THEREWITH” (BeiGene, Ltd., priority 2022, published 2025) are IC50 values, retold here.

One assay addresses T1, Cbl-b (aa36-427) (Homo sapiens, UniProt Q13191).
T1 construct: Cbl-b (aa36-427, in-house); made in house
As to the kind of experiment: Co-expressed Cbl-b with BirA biochemical assay (CBLB/E2-Ub binding, HTRF). Conditions: 0.6 nM Cbl-b co-expressed with BirA, HTRF; read-out: co-express CBLB/E2-Ub-binding assay IC50. The source says: (§1) The assay in the absence of a Cbl-b/Cbl inhibitor, where phosphorylation of Cbl-b/Cbl by the Src kinase allows UbcH5B-Ub to bind to Cbl-b/Cbl and brings the Bodipy-Fluorescein tagged ubiquitin in proximity to the streptavidin-terbium bound to the N-terminal biotinylated Avi-tagged Cbl-b/Cbl. […] The lack of a FRET signal indicates Cbl-b/Cbl is inhibited by the Cbl-b/Cbl inhibitor.

A further assay has as its target T2, Cbl (aa49-434) (Homo sapiens, UniProt P22681).
T2 construct: Cbl (aa49-434, in-house); made in house
T2 sequence (P22681 49-434): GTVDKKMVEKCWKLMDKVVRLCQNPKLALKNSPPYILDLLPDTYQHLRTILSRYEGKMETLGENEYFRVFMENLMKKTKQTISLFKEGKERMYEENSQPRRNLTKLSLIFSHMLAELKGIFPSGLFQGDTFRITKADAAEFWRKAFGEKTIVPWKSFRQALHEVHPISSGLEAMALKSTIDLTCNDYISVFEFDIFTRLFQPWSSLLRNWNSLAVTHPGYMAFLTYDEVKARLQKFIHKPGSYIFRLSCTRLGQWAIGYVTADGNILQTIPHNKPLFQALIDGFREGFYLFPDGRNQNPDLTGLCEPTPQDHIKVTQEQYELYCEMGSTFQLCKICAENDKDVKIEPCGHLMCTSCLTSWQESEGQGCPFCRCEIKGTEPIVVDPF
Nature of the assay: Co-expressed Cbl with BirA biochemical assay (CBL/E2-Ub binding, HTRF). The following applies: 0.6 nM Cbl co-expressed with BirA, read-out: co-express CBL/E2-Ub-binding assay IC50.
Source text: as §1

T1 sequence (Q13191 36-427): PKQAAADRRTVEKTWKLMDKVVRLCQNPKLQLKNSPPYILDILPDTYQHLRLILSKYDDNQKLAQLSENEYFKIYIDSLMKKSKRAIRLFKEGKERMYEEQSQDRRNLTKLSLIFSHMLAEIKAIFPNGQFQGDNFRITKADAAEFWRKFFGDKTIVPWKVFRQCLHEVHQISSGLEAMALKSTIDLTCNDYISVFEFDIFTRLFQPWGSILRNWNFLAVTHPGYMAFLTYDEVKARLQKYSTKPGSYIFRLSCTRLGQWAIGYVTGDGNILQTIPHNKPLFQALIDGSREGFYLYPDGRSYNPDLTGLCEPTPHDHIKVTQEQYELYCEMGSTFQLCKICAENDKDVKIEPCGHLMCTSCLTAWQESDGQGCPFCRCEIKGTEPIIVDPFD

As for `C[C@H]1CCCN(Cc2cc(C(=O)Nc3cccc([C@]4(c5nncn5C)C[C@@H](CC#N)C4)c3)n3ncc(F)c3c2)C1` [Compound A20, 3-fluoro-5-{[(3S)-3-methylpiperidin-1-yl]methyl}-N-{3-[(1s, 3s)-3-(cyanomethyl)-1-(4-methyl-1,2,4-triazol-3-yl)cyclobutyl]phenyl}pyrazolo[1,5-a]pyridine-7-carboxamide], the IC50 amounted to 3 nM on Cbl-b (aa36-427) and 26.5 nM at Cbl (aa49-434).
Turning to `C[C@H]1CCCN(Cc2cc(C(=O)Nc3cccc([C@]4(c5nncn5C)C[C@@H](CC#N)C4)c3)nc3c(Cl)c[nH]c23)C1` [Compound B16, 3-chloro-N-(3-((1s,3R)-3-(cyanomethyl)-1-(4-methyl-4H-1,2,4-triazol-3-yl)cyclobutyl)phenyl)-7-(((S)-3-methylpiperidin-1-yl)methyl)-1H-pyrrolo[3,2-b]pyridine-5-carboxamide], the IC50 on Cbl-b (aa36-427) came out at 1.7 nM; on Cbl (aa49-434) it was 16.1 nM.
The matching figures for `Cn1cnnc1[C@]1(c2cccc(NC(=O)c3cc(CNC4(C)CCC4)c4ccsc4n3)c2)C[C@H](CC#N)C1` [Compound B39, 4-{[(1-methylcyclobutyl)amino]methyl}-N-{3-[(1s, 3s)-3-(cyanomethyl)-1-(4-methyl-1,2,4-triazol-3-yl)cyclobutyl]phenyl}thieno[2,3-b]pyridine-6-carboxamide]: 0.8 nM and 8.8 nM.
Taken in the same sequence, the figures for `Cn1cnnc1[C@]1(c2cccc(NC(=O)c3cc(CNC4(C)CC4)c4[nH]ccc4n3)c2)C[C@H](CC#N)C1` [Compound B26, N-(3-((1s, 3s)-3-(cyanomethyl)-1-(4-methyl-4H-1,2,4-triazol-3-yl)cyclobutyl)phenyl)-7-(((1-methylcyclopropyl)amino)methyl)-1H-pyrrolo[3,2-b]pyridine-5-carboxamide] were 1.3 nM and 4.1 nM.
Taken in the same sequence, the figures for `Cn1cnnc1C[C@]1(c2cccc(NC(=O)c3cc(CNCC4CCCC(F)(F)C4)c4c(n3)C(C)(C)CC4)c2)C[C@H](C#N)C1` (stereo partly drawn) [Compound C15, N-(3-((1r, 3r)-3-cyano-1-((4-methyl-4H-1,2,4-triazol-3-yl)methyl)cyclobutyl)phenyl)-4-((((3,3-difluorocyclohexyl)methyl)amino)methyl)-7,7-dimethyl-6,7-dihydro-5H-cyclopenta[b]pyridine-2-carboxamide] were 1.8 nM and 5.2 nM.
With `Cn1cnnc1CC1(c2cccc(NC(=O)c3cc(CN4CCCC(C(F)(F)F)C4)c4[nH]ccc4n3)c2)COC1` (stereo not drawn) [Compound B9, N-(3-(3-((4-methyl-4H-1,2,4-triazol-3-yl)methyl)oxetan-3-yl)phenyl)-7-((3-(trifluoromethyl)piperidin-1-yl)methyl)-1H-pyrrolo[3,2-b]pyridine-5-carboxamide], the values for the IC50 at Cbl-b (aa36-427) and on Cbl (aa49-434) were 25.9 nM and 42.9 nM, respectively.
The matching figures for `Cn1cnnc1[C@]1(c2cccc(NC(=O)c3cc(CNCC(C)(C)C)cn4ccnc34)c2)C[C@H](CC#N)C1` [Compound A32, N-(3-((1s, 3s)-3-(cyanomethyl)-1-(4-methyl-4H-1,2,4-triazol-3-yl)cyclobutyl)phenyl)-6-((neopentylamino)methyl)imidazo[1,2-a]pyridine-8-carboxamide]: 1.1 nM and 4.9 nM.
Taken in the same sequence, the figures for `Cn1cnnc1[C@]1(c2cccc(NC(=O)c3cc(CNC4(C)CC4)c4c(n3)C(C)(C)CC4)c2)C[C@H](CC#N)C1` [Compound C24, N-(3-((1s, 3s)-3-(cyanomethyl)-1-(4-methyl-4H-1,2,4-triazol-3-yl)cyclobutyl)phenyl)-7,7-dimethyl-4(((1methylcyclopropyl)amino)methyl)-6,7-dihydro-5H-cyclopenta[b]pyridine-2-carboxamide] were 1.6 nM and 10.4 nM.
Taken in the same sequence, the figures for `C[C@H](NCc1cc(C(=O)Nc2cccc([C@]3(c4nncn4C)C[C@@H](CC#N)C3)c2)c2nccn2c1)C1CCC1` [Compound A38, N-(3-((1s,3R)-3-(cyanomethyl)-1-(4-methyl-4H-1,2,4-triazol-3-yl)cyclobutyl)phenyl)-6-((((S)-1-cyclobutylethyl)amino)methyl)imidazo[1,2-a]pyridine-8-carboxamide] were 1.4 nM and 2.4 nM.
Turning to `C[C@H]1CCCN(Cc2cc(C(=O)Nc3cccc([C@]4(c5nncn5C)C[C@@H](CC#N)C4)c3)nc3c2NCC3(C)C)C1` [Compound C13, 3,3-dimethyl-7-{[(3S)-3-methylpiperidin-1-yl]methyl}-N-{3-[(1s, 3s)-3-(cyanomethyl)-1-(4-methyl-1,2,4-triazol-3-yl)cyclobutyl]phenyl}-1H,2H-pyrrolo[3,2-b]pyridine-5-carboxamide], the IC50 amounted to 1.1 nM on Cbl-b (aa36-427) and 9.2 nM at Cbl (aa49-434).
Taken in the same sequence, the figures for `Cn1cnnc1[C@]1(c2cccc(NC(=O)c3cc(CNC4(C)CCC4)cn4c(F)cnc34)c2)C[C@H](CC#N)C1` [Compound A61, N-(3-((1s, 3s)-3-(cyanomethyl)-1-(4-methyl-4H-1,2,4-triazol-3-yl)cyclobutyl)phenyl)-3-fluoro-6-(((1-methylcyclobutyl)amino)methyl)imidazo[1,2-a]pyridine-8-carboxamide] were 1.2 nM and 11.1 nM.
Take `C[C@H](NCc1cc(C(=O)Nc2cccc([C@]3(c4nncn4C)C[C@@H](C)C3)c2)c2nccn2c1)C1CCCC1` [Compound A40, 6-((((S)-1-cyclopentylethyl)amino)methyl)-N-(3-((1s,3R)-3-methyl-1-(4-methyl-4H-1,2,4-triazol-3-yl)cyclobutyl)phenyl)imidazo[1,2-a]pyridine-8-carboxamide]: the IC50 at Cbl-b (aa36-427) was determined as 1.6 nM; at Cbl (aa49-434), 3.1 nM.
Taken in the same sequence, the figures for `Cn1cnnc1[C@]1(c2cccc(NC(=O)c3cc(CNCC4(C)CCC4)c4c(n3)C(C)(C)CO4)c2)C[C@H](CC#N)C1` [Compound C25, N-(3-((1s, 3s)-3-(cyanomethyl)-1-(4-methyl-4H-1,2,4-triazol-3-yl)cyclobutyl)phenyl)-3,3-dimethyl-7-((((1-methylcyclobutyl)methyl)amino)methyl)-2,3-dihydrofuro[3,2-b]pyridine-5-carboxamide] were 2.8 nM and 49.5 nM.
The matching figures for `Cn1cnnc1[C@]1(c2cccc(NC(=O)c3cc(CNCC4(C)CCCC4)c4c(n3)C(C)(C)CN4)c2)C[C@H](CC#N)C1` [Compound C22, 3,3-dimethyl-7-({[(1-methylcyclopentyl)methyl]amino}methyl)-N-{3-[(1s, 3s)-3-(cyanomethyl)-1-(4-methyl-1,2,4-triazol-3-yl)cyclobutyl]phenyl}-1H,2H-pyrrolo[3,2-b]pyridine-5-carboxamide]: 1.4 nM and 6.1 nM.
The matching figures for `C[C@H](NCc1cc(C(=O)Nc2cncc([C@]3(c4nncn4C)C[C@@H](C)C3)c2)nc2sccc12)C1CCC1` [Compound B42, 4-({[(1S)-1-cyclobutylethyl]amino}methyl)-N-{5-[(1r, 3s)-3-methyl-1-(4-methyl-1,2,4-triazol-3-yl)cyclobutyl]pyridin-3-yl}thieno[2,3-b]pyridine-6-carboxamide]: 2.1 nM and 4.7 nM.
